Measurements from US20230016424A1, “HYBRID AMIDE DERIVATIVES OF AMPHOTERICIN B” (The Board of Trustees of the University of Illinois, priority 2019, published 2023).
≈ marks a conversion by molar mass, not a printed value.

Columns and labels:
[1] = tested on: C. albicans SN250, C. albicans, C. krusei, C. glabrata, C. tropicalis, A. fumigatus 91, 1163, 1100; experiment: Average MIC over the tested strains; format: cell-based; parameters: Avg. MIC of AmB amide: unit not given here; settings: for Avg. MIC of AmB amide: value of the corresponding C16 amide of AmB, not of the C2’epi compound; for MIC: average over the 8 listed strains
[2] = tested on: A. fumigatus 1163; experiment: MIC; format: cell-based
[3] = tested on: C. tropicalis; experiment: MIC; format: cell-based
[4] = tested on: C. albicans; experiment: MIC; format: cell-based
[5] = tested on: A. fumigatus 91; experiment: MIC; format: cell-based
[6] = tested on: C. glabrata; experiment: MIC; format: cell-based
[7] = tested on: C. albicans SN250; experiment: MIC; format: cell-based, Candida albicans
[8] = tested on: A. fumigatus 1100; experiment: MIC; format: cell-based
[9] = tested on: C. krusei; experiment: MIC; format: cell-based
[10] = Table 12, C16 amides of C2'epiAmB
[11] = Table 13, C16 amides of C2’epiAmB

SMILES	Average MIC [1, 10]	Avg. MIC of AmB amide [1]	MIC A. fumigatus 1163 [2]	MIC C. tropicalis [3]	MIC [1]	MIC C. albicans [4]	MIC A. fumigatus 91 [5]	MIC C. glabrata [6]	MIC C. albicans SN250 [7]	MIC A. fumigatus 1100 [8]	MIC C. krusei [9]	Average MIC [1, 11]	Average MIC ([1]; Tables 8 and 9, average over the 8 listed strains)
CC1C=CC=CC=CC=CC=CC=CC=CC(OC2OC(C)C(O)C(N)C2O)CC2OC(O)(CC(O)CC(O)C(O)CCC(O)CC(O)CC(=O)OC(C)C(C)C1O)CC(O)C2C(=O)NCCC#N (centres unmarked) [BO]	1.188 µM	0.42	1500 µM (≈ 1460 µg/mL)	500 µM (≈ 488 µg/mL)	–	–	–	–	–	–	–	–	–
COCCNC(=O)C1C(O)CC2(O)CC(O)CC(O)C(O)CCC(O)CC(O)CC(=O)OC(C)C(C)C(O)C(C)C=CC=CC=CC=CC=CC=CC=CC(OC3OC(C)C(O)C(N)C3O)CC1O2 (centres unmarked) [AG]	–	–	1 µM (≈ 0.981 µg/mL)	0.4 µM (≈ 0.392 µg/mL)	0.806 µM	035 µM (≈ 34.3 µg/mL)	2 µM (≈ 1.96 µg/mL)	0.3 µM (≈ 0.294 µg/mL)	0.4 µM (≈ 0.392 µg/mL)	1 µM (≈ 0.981 µg/mL)	1 µM (≈ 0.981 µg/mL)	–	–
CC1C=CC=CC=CC=CC=CC=CC=CC(OC2OC(C)C(O)C(N)C2O)CC2OC(O)(CC(O)CC(O)C(O)CCC(O)CC(O)CC(=O)OC(C)C(C)C1O)CC(O)C2C(=O)NCC(F)F (centres unmarked) [BQ]	1.625 µM	0.30	–	–	–	–	4000 µM (≈ 3950 µg/mL)	–	–	–	–	1625 µM	–
CC1C=CC=CC=CC=CC=CC=CC=CC(OC2OC(C)C(O)C(N)C2O)CC2OC(O)(CC(O)CC(O)C(O)CCC(O)CC(O)CC(=O)OC(C)C(C)C1O)CC(O)C2C(=O)NCC(O)CO (mixture of isomers) [AJ]	–	–	0.3 µM	0.2 µM	0.329 µM	0.20 µM	1 µM	0.08 µM	0.15 µM	0.4 µM	0.3 µM	–	–
CC1C=CC=CC=CC=CC=CC=CC=CC(OC2OC(C)C(O)C(N)C2O)CC2OC(O)(CC(O)CC(O)C(O)CCC(O)CC(O)CC(=O)OC(C)C(C)C1O)CC(O)C2C(=O)NC1COCC1O (centres unmarked) [BR]	1.688 µM	0.38	–	500 µM (≈ 505 µg/mL)	–	–	–	–	–	–	–	1250 µM	–
CC1C=CC=CC=CC=CC=CC=CC=CC(OC2OC(C)C(O)C(N)C2O)CC2OC(O)(CC(O)CC(O)C(O)CCC(O)CC(O)CC(=O)OC(C)C(C)C1O)CC(O)C2C(=O)NC1CCC1 (centres unmarked) [AR4]	–	–	1000 µM (≈ 977 µg/mL)	500 µM (≈ 489 µg/mL)	–	–	–	–	500 µM (≈ 489 µg/mL)	–	550 µM (≈ 537 µg/mL)	–	750 µM
CC(O)CNC(=O)C1C(O)CC2(O)CC(O)CC(O)C(O)CCC(O)CC(O)CC(=O)OC(C)C(C)C(O)C(C)C=CC=CC=CC=CC=CC=CC=CC(OC3OC(C)C(O)C(N)C3O)CC1O2 (centres unmarked) [AH]	–	–	1 µM (≈ 0.981 µg/mL)	0.45 µM (≈ 0.442 µg/mL)	0.763 µM	0.35 µM (≈ 0.343 µg/mL)	2 µM (≈ 1.96 µg/mL)	0.2 µM (≈ 0.196 µg/mL)	0.35 µM (≈ 0.343 µg/mL)	1 µM (≈ 0.981 µg/mL)	0.75 µM (≈ 0.736 µg/mL)	–	–
CCC(CO)NC(=O)C1C(O)CC2(O)CC(O)CC(O)C(O)CCC(O)CC(O)CC(=O)OC(C)C(C)C(O)C(C)C=CC=CC=CC=CC=CC=CC=CC(OC3OC(C)C(O)C(N)C3O)CC1O2 (centres unmarked) [AD]	–	–	1 µM (≈ 0.995 µg/mL)	0.4 µM (≈ 0.398 µg/mL)	0.731 µM	0.35 µM (≈ 0.348 µg/mL)	2 µM (≈ 1.99 µg/mL)	0.3 µM (≈ 0.299 µg/mL)	0.3 µM (≈ 0.299 µg/mL)	1 µM (≈ 0.995 µg/mL)	0.5 µM (≈ 0.498 µg/mL)	–	–
